Reference: ChEMBL document CHEMBL1201861, “Genomics of Drug Sensitity in Cancer screening data, Wellcome Trust Sanger Institute”

Legend:
CP67-MEL = assay: SANGER: Inhibition of human CP67-MEL cell growth in a cell viability assay.; assay type: functional, cell-based
EW-12 = assay: SANGER: Inhibition of human EW-12 cell growth in a cell viability assay.; assay type: functional, cell-based
IM-9 = assay: SANGER: Inhibition of human IM-9 cell growth in a cell viability assay.; assay type: functional, cell-based; conditions: Homo sapiens, IM-9
SCC-3 = assay: cells; assay type: functional, cell-based, Homo sapiens; conditions: Homo sapiens, SCC-3;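 further: cell viability assay measuring inhibition of SCC-3 cell growth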
Description: SANGER: Inhibition of human SCC-3 cell growth in a cell viability assay.

SKM-1 = assay: SANGER: Inhibition of human SKM-1 cell growth in a cell viability assay.; assay type: functional, cell-based
NCI-H64 = assay: cells; assay type: functional, cell-based, Homo sapiens; conditions: Homo sapiens, NCI-H64;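 further: growth inhibition of NCI-H64 cells, read out with a cell viability assay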
Description: SANGER: Inhibition of human NCI-H64 cell growth in a cell viability assay.

LC-1F = assay: cells; assay type: functional, cell-based, Homo sapiens; conditions: Homo sapiens, LC-1F;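 further: growth inhibition of human LC-1F cells, read out with a cell viability assay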
Description: SANGER: Inhibition of human LC-1F cell growth in a cell viability assay.

DMS-53 = assay: cells; assay type: functional, cell-based, Homo sapiens; conditions: Homo sapiens, DMS-53;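 further: cell viability assay measuring growth inhibition of human DMS-53 cells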
Description: SANGER: Inhibition of human DMS-53 cell growth in a cell viability assay.

RMG-I = assay: cells; assay type: functional, cell-based, Homo sapiens; conditions: Homo sapiens, RMG-I;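 further: growth inhibition of human RMG-I cells, read out with a cell viability assay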
Description: SANGER: Inhibition of human RMG-I cell growth in a cell viability assay.

CAL-39 = assay: cells; assay type: functional, cell-based, Homo sapiens; conditions: Homo sapiens, CAL-39;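 further: cell viability assay measuring growth inhibition of CAL-39 cells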
Description: SANGER: Inhibition of human CAL-39 cell growth in a cell viability assay.

SK-MEL-28 = assay: cells; assay type: functional, cell-based, Homo sapiens; conditions: Homo sapiens, SK-MEL-28;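 further: growth inhibition of human SK-MEL-28 cells, read out with a cell viability assay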
Description: SANGER: Inhibition of human SK-MEL-28 cell growth in a cell viability assay.

SK-CO-1 = assay: cells; assay type: functional, cell-based, Homo sapiens; conditions: Homo sapiens, SK-CO-1;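 further: growth inhibition of SK-CO-1 cells, determined by a viability readout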
Description: SANGER: Inhibition of human SK-CO-1 cell growth in a cell viability assay.

TYK-nu = assay: cells; assay type: functional, cell-based, Homo sapiens; conditions: Homo sapiens, TYK-nu;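 further: growth inhibition of human TYK-nu cells, read out by a cell viability assay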
Description: SANGER: Inhibition of human TYK-nu cell growth in a cell viability assay.

HCC1143 = assay: cells; assay type: functional, cell-based, Homo sapiens; conditions: Homo sapiens, HCC1143;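 further: growth inhibition of human HCC1143 cells, read out with a cell viability assay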
Description: SANGER: Inhibition of human HCC1143 cell growth in a cell viability assay.

HO-1-N-1 = assay: cells; assay type: functional, cell-based, Homo sapiens; conditions: Homo sapiens, HO-1-N-1;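 further: growth inhibition of human HO-1-N-1 cells, read out with a cell viability assay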
Description: SANGER: Inhibition of human HO-1-N-1 cell growth in a cell viability assay.

CAL-85-1 = assay: cells; assay type: functional, cell-based, Homo sapiens; conditions: Homo sapiens, CAL-85-1;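 further: growth inhibition of human CAL-85-1 cells, read out with a cell viability assay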
Description: SANGER: Inhibition of human CAL-85-1 cell growth in a cell viability assay.

COLO 205 = assay: cells; assay type: functional, cell-based, Homo sapiens; conditions: Homo sapiens, COLO 205
Description: SANGER: Inhibition of human COLO-205 cell growth in a cell viability assay.

IGR-1 = assay: cells; assay type: functional, cell-based, Homo sapiens; conditions: Homo sapiens, IGR-1;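 further: growth inhibition of human IGR-1 cells, read out with a cell viability assay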
Description: SANGER: Inhibition of human IGR-1 cell growth in a cell viability assay.

A204 = assay: cells; assay type: functional, cell-based, Homo sapiens; conditions: Homo sapiens, A204;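 further: growth inhibition of human A204 cells, read out with a cell viability assay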
Description: SANGER: Inhibition of human A204 cell growth in a cell viability assay.

SiHa = assay: cells; assay type: functional, cell-based, Homo sapiens; conditions: Homo sapiens, SiHa;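 further: Viability-based readout of growth inhibition in SiHa cells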
Description: SANGER: Inhibition of human SiHa cell growth in a cell viability assay.

HT-29 = assay: cells; assay type: functional, cell-based, Homo sapiens; conditions: Homo sapiens, HT-29;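 further: growth inhibition of human HT-29 cells, read out by a cell viability assay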
Description: SANGER: Inhibition of human HT-29 cell growth in a cell viability assay.

Calu-1 = assay: SANGER: Inhibition of human Calu-1 cell growth in a cell viability assay.; assay type: functional, cell-based; conditions: Homo sapiens, Calu-1
PC-14 = assay: cells; assay type: functional, cell-based, Homo sapiens; conditions: Homo sapiens, PC-14;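 further: cell viability assay measuring inhibition of PC-14 cell growth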
Description: SANGER: Inhibition of human PC-14 cell growth in a cell viability assay.

Caov-3 cell line = assay: cells; assay type: functional, cell-based, Homo sapiens; conditions: Homo sapiens, Caov-3;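 further: cell growth inhibition read out by a viability assay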
Description: SANGER: Inhibition of human Caov-3 cell growth in a cell viability assay.

HCC1419 = assay: cells; assay type: functional, cell-based, Homo sapiens; conditions: Homo sapiens, HCC1419;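 further: growth inhibition of human HCC1419 cells, read out as cell viability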
Description: SANGER: Inhibition of human HCC1419 cell growth in a cell viability assay.

Calu-3 = assay: cells; assay type: functional, cell-based, Homo sapiens; conditions: Homo sapiens, Calu-3;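 further: growth inhibition of human Calu-3 cells, determined with a cell viability assay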
Description: SANGER: Inhibition of human Calu-3 cell growth in a cell viability assay.

KOSC-2 = assay: cells; assay type: functional, cell-based, Homo sapiens; conditions: Homo sapiens, KOSC-2;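 further: growth inhibition of KOSC-2 cells, read out by a cell viability assay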
Description: SANGER: Inhibition of human KOSC-2 cell growth in a cell viability assay.

NCI-H2405 = assay: cells; assay type: functional, cell-based, Homo sapiens; conditions: Homo sapiens, NCI-H2405;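 further: growth inhibition of the human cell line, read out with a cell viability assay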
Description: SANGER: Inhibition of human NCI-H2405 cell growth in a cell viability assay.

NCI-H2452 = assay: cells; assay type: functional, cell-based, Homo sapiens; conditions: Homo sapiens, NCI-H2452;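 further: growth inhibition of NCI-H2452 cells, read out with a cell viability assay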
Description: SANGER: Inhibition of human NCI-H2452 cell growth in a cell viability assay.

OAW-42 = assay: cells; assay type: functional, cell-based, Homo sapiens; conditions: Homo sapiens, OAW-42;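 further: growth inhibition of OAW-42 cells, read out with a cell viability assay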
Description: SANGER: Inhibition of human OAW-42 cell growth in a cell viability assay.

T47D = assay: cells; assay type: functional, cell-based, Homo sapiens; conditions: Homo sapiens, T47D;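 further: growth inhibition of human T47D cells, measured with a cell viability assay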
Description: SANGER: Inhibition of human T47D cell growth in a cell viability assay.

DV-90 = assay: cells; assay type: functional, cell-based, Homo sapiens; conditions: Homo sapiens, DV-90;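 further: Read-out is a viability assay, with IC50 reflecting the drop in DV-90 cell growth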
Description: SANGER: Inhibition of human DV-90 cell growth in a cell viability assay.

RT-4 = assay: SANGER: Inhibition of human RT4 cell growth in a cell viability assay.; assay type: functional, cell-based; conditions: Homo sapiens, RT-4
CAL-72 = assay: cells; assay type: functional, cell-based, Homo sapiens; conditions: Homo sapiens, CAL-72;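 further: cell viability assay measuring inhibition of proliferation in the CAL-72 cell line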
Description: SANGER: Inhibition of human CAL-72 cell growth in a cell viability assay.

NCI-H2342 = assay: cells; assay type: functional, cell-based, Homo sapiens; conditions: Homo sapiens, NCI-H2342;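 further: growth inhibition of the cancer cell line, determined with a cell viability assay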
Description: SANGER: Inhibition of human NCI-H2342 cell growth in a cell viability assay.

PLC-PRF-5 = assay: cells; assay type: functional, cell-based, Homo sapiens; conditions: Homo sapiens, PLC-PRF-5;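 further: growth inhibition of human PLC-PRF-5 cells, read out with a viability assay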
Description: SANGER: Inhibition of human PLC-PRF-5 cell growth in a cell viability assay.

SW948 = assay: cells; assay type: functional, cell-based, Homo sapiens; conditions: Homo sapiens, SW948;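 further: growth inhibition of SW948 cells, read out with a cell viability assay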
Description: SANGER: Inhibition of human SW948 cell growth in a cell viability assay.

ABC-1 = assay: cells; assay type: functional, cell-based, Homo sapiens; conditions: Homo sapiens, ABC-1;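 further: growth inhibition of human ABC-1 cells, read out by a cell viability assay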
Description: SANGER: Inhibition of human ABC-1 cell growth in a cell viability assay.

MIA PaCa-2 = assay: cells; assay type: functional, cell-based, Homo sapiens; conditions: Homo sapiens, MIA PaCa-2;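 further: growth inhibition of MIA PaCa-2 cells, read out with a cell viability assay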
Description: SANGER: Inhibition of human MIA-PaCa-2 cell growth in a cell viability assay.

MHH-ES-1 = assay: cells; assay type: functional, cell-based, Homo sapiens; conditions: Homo sapiens, MHH-ES-1
Description: SANGER: Inhibition of human MHH-ES-1 cell growth in a cell viability assay.

MDA-MB-157 = assay: cells; assay type: functional, cell-based, Homo sapiens; conditions: Homo sapiens, MDA-MB-157
Description: SANGER: Inhibition of human MDA-MB-157 cell growth in a cell viability assay.

SMILES: COc1cc(-c2nn([C@H]3CC[C@H](N4CCN(C(C)=O)CC4)CC3)c3ncnc(N)c23)ccc1NC(=O)c1cc2ccccc2n1C
- IC50 (CP67-MEL): > 5120 nM
- IC50 (EW-12): > 5120 nM
- IC50 (IM-9): > 5120 nM
- IC50 (SCC-3): > 5120 nM
- IC50 (SKM-1): > 5120 nM
- IC50 (NCI-H64): > 5120 nM
- IC50 (LC-1F): > 5120 nM

SMILES: CC(=O)O[C@H]1C(=O)[C@@]2(C)[C@H]([C@H](OC(=O)c3ccccc3)[C@]3(O)C[C@H](OC(=O)[C@H](O)[C@@H](NC(=O)c4ccccc4)c4ccccc4)C(C)=C1C3(C)C)[C@]1(OC(C)=O)CO[C@@H]1C[C@@H]2O [PACLITAXEL]
- IC50 (CP67-MEL): 68.1 nM
- IC50 (EW-12): > 102 nM
- IC50 (IM-9): > 102 nM
- IC50 (SCC-3): 12 nM
- IC50 (SKM-1): > 102 nM
- IC50 (NCI-H64): 38.6 nM
- IC50 (LC-1F): > 102 nM

SMILES: CCN(CC)CCNC(=O)c1c(C)[nH]c(/C=C2\C(=O)Nc3ccc(F)cc32)c1C [SUNITINIB]
- IC50 (CP67-MEL): > 8000 nM
- IC50 (EW-12): > 8000 nM
- IC50 (IM-9): > 8000 nM
- IC50 (SCC-3): 2830 nM
- IC50 (SKM-1): > 8000 nM
- IC50 (NCI-H64): > 8000 nM
- IC50 (LC-1F): > 8000 nM

SMILES: Cc1ccc(-c2c(C(=O)CCl)n(CCCO)c3ncnc(N)c23)cc1
- IC50 (CP67-MEL): > 4000 nM
- IC50 (EW-12): > 4000 nM
- IC50 (IM-9): > 4000 nM
- IC50 (SCC-3): > 4000 nM
- IC50 (SKM-1): > 4000 nM
- IC50 (NCI-H64): > 4000 nM
- IC50 (LC-1F): > 4000 nM

SMILES: CCC/C=C/C=C/C(=O)O[C@H]1/C(=C/C(=O)OC)C[C@H]2C[C@H]([C@@H](C)O)OC(=O)C[C@H](O)C[C@@H]3C[C@H](OC(C)=O)C(C)(C)[C@](O)(C[C@@H]4C/C(=C/C(=O)OC)C[C@H](/C=C/C(C)(C)[C@]1(O)O2)O4)O3 [BRYOSTATIN 1]
- IC50 (DMS-53): > 8 nM
- IC50 (RMG-I): > 8 nM
- IC50 (CAL-39): > 8 nM
- IC50 (SK-MEL-28): > 8 nM
- IC50 (SK-CO-1): > 8 nM
- IC50 (TYK-nu): > 8 nM
- IC50 (HCC1143): > 8 nM
- IC50 (HO-1-N-1): > 8 nM
- IC50 (CAL-85-1): 5.52 nM
- IC50 (COLO 205): > 8 nM
- IC50 (IGR-1): > 8 nM
- IC50 (A204): > 8 nM
- IC50 (IM-9): > 8 nM
- IC50 (SiHa): > 8 nM
- IC50 (HT-29): > 8 nM
- IC50 (Calu-1): > 8 nM
- IC50 (PC-14): > 8 nM
- IC50 (Caov-3 cell line): > 8 nM
- IC50 (HCC1419): > 8 nM
- IC50 (Calu-3): > 8 nM
- IC50 (KOSC-2): > 8 nM
- IC50 (NCI-H2405): > 8 nM
- IC50 (NCI-H2452): > 8 nM
- IC50 (OAW-42): > 8 nM
- IC50 (SCC-3): > 8 nM
- IC50 (T47D): > 8 nM
- IC50 (DV-90): > 8 nM
- IC50 (NCI-H64): > 8 nM
- IC50 (RT-4): > 8 nM
- IC50 (CAL-72): > 8 nM
- IC50 (NCI-H2342): > 8 nM
- IC50 (PLC-PRF-5): > 8 nM
- IC50 (SW948): > 8 nM
- IC50 (ABC-1): > 8 nM
- IC50 (MIA PaCa-2): > 8 nM
- IC50 (LC-1F): > 8 nM
- IC50 (MHH-ES-1): > 8 nM
- IC50 (MDA-MB-157): > 8 nM
